Measured values: US20240025906A1 (NEURON23, INC., priority 2022, published 2024)
Like-named read-outs stand apart in the source and are kept apart here.

Columns and labels:
[1] = tested on: JAK1/TYK2 pSTAT5 (Tyr694/699) in THP-1 cell line; experiment: IFNa-stimulated JAK1/TYK2 pSTAT5 (Tyr694/699) inhibition cellular assay, AlphaLISA; format: cell-based; conditions: Homo sapiens, THP-1 cells, IFNa-stimulated, AlphaLISA (Assay B)
Summary of the method: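 THP-1 cells (2e4/well in HBSS) were preincubated with compound (8 points, 6-fold steps from 10000 nM final) for 1 h at 37 °C, then stimulated with IFNa (added at 100 ng/mL) for 30 min. Lysate pSTAT5 was read by AlphaLISA at 615 nm. IC50 came from a 4-parameter fit with bottom 0 and Hill −1.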

TYK2 JH2 = molecular target: T1, TYK2 JH2 (Homo sapiens, UniProt P29597); experiment: TYK2 JH2 binding assay (KINOMEscan KdELECT competitive binding); conditions: TYK2 JH2 domain
T1 construct: purchased DiscoverX (KINOMEscan KdELECT service); host or cells: E. coli BL21-derived (T7 phage display) or HEK-293
Summary of the method: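 Competition binding, KdELECT format. Kinase (phage-tagged, E. coli BL21-derived host; or HEK-293, DNA-tagged) + ligand-coated streptavidin beads + cpd, 1 h RT, final DMSO 0.9%. Wash, elute 30 min with 0.5 μM non-biotinylated ligand; qPCR readout. Kd: 11-pt, 3-fold series.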

[2] = read-out: Cellular THP1_IFNa-pSTATS_IC50
[3] = KINOMEscan KdELECT (Assay A), read-out: Biochemical TYK2_JH2_Kd
[4] = read-out: Cellular_THP1_IFNa-pSTATS_TYK2
[5] = DiscoverX KINOMEscan KdELECT (Assay A), read-out: Biochemical TYK2_DiscoverX_JH2_BND_Kd

T1 sequence (P29597 589-875 limits assumed): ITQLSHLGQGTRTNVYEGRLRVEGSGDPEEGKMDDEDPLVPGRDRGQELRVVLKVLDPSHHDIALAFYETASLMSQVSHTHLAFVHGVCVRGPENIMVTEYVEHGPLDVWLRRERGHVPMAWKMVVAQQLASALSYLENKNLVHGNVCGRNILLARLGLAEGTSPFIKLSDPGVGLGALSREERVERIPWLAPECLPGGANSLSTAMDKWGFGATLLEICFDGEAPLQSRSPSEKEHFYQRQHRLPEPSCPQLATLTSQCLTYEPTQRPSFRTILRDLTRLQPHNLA

SMILES	IC50 [1, 2] [µM]	Kd (TYK2 JH2; [3]) [µM]	IC50 [1, 4] [µM]	Kd (TYK2 JH2; [5]) [µM]
CNc1ncc(-c2ccccc2)c2cc(NC(=O)C3(F)CC3)ncc12 [Example 161, 1-fluoro-N-(8-(methylamino)-5-phenyl-2,7-naphthyridin-3-yl)cyclopropane-1-carboxamide]	> 0.5	≤ 0.1	–	–
CNc1ncc(-c2ccccc2)c2cc(NC(C)C)ncc12 [Example 162, N^6-isopropyl-N^1-methyl-4-phenyl-2,7-naphthyridine-1,6-diamine]	> 0.5	0.1 to 1	–	–
CNc1nc(C)cc2cc(NC(=O)C3CC3)ncc12 [Example 163, N-(6-methyl-8-(methylamino)-2,7-naphthyridin-3-yl)cyclopropanecarboxamide]	> 0.5	0.1 to 1	–	–
C=Cc1cc2cc(NC(=O)C3CC3)ncc2c(NC)n1 [Example 164, N-(8-(methylamino)-6-vinyl-2,7-naphthyridin-3-yl)cyclopropanecarboxamide]	> 0.5	0.1 to 1	–	–
CCc1cc2cc(NC(=O)C3CC3)ncc2c(NC)n1 [Example 165, N-(6-ethyl-8-(methylamino)-2,7-naphthyridin-3-yl)cyclopropanecarboxamide]	> 0.5	≤ 0.1	–	–
CNc1ncc(/C=C/c2cccc(OC)c2)c2cc(NC(=O)C3CC3)ncc12 [Example 167, (E)-N-(5-(3-methoxystyryl)-8-(methylamino)-2,7-naphthyridin-3-yl)cyclopropanecarboxamide]	≤ 0.5	≤ 0.1	–	–
C=C(c1ccccc1OC)c1cnc(NC)c2cnc(NC(=O)C3CC3)cc12 [Example 175]	> 0.5	0.1 to 1	–	–
CNc1nccc2cc(NC(=O)C3CC3)nnc12 [Example 176, N-(8-(methylamino)pyrido[3,4-c]pyridazin-3-yl)cyclopropanecarboxamide]	> 0.5	0.1 to 1	–	–
CNc1ncc(Br)c2cc(NC(=O)C3CC3)nnc12 [Example 177, N-(5-bromo-8-(methylamino)pyrido[3,4-c]pyridazin-3-yl)cyclopropanecarboxamide]	> 0.5	≤ 0.1	–	–
CNc1ncc(-c2ccccc2)c2cc(NC(=O)C3CC3)nnc12 [Example 178, N-(8-(methylamino)-5-phenylpyrido[3,4-c]pyridazin-3-yl)cyclopropanecarboxamide]	> 0.5	≤ 0.1	–	–
CNc1ncc(-c2nc3cc(N4CCC4)ccn3n2)c2cc(NC(=O)C3CC3)ncc12 [Example 188, N-(5-(7-(azetidin-1-yl)-[1,2,4]triazolo[1,5-a]pyridin-2-yl)-8-(methylamino)-2,7-naphthyridin-3-yl)cyclopropanecarboxamide]	≤ 0.5	≤ 0.1	–	–
CNc1ncc(-c2nc3cc(OC4CN(C(=O)OC(C)(C)C)C4)ccc3o2)c2cc(NC(=O)C3CC3)ncc12 [Example 196, tert-butyl 3-((2-(6-(cyclopropanecarboxamido)-1-(methylamino)-2,7-naphthyridin-4-yl)benzo[d]oxazol-5-yl)oxy)azetidine-1-carboxylate]	–	–	≤ 0.5	≤ 0.1
CNc1ncc(-c2nc3cc(OC4CNC4)ccc3o2)c2cc(NC(=O)C3CC3)ncc12 [Example 197, N-(5-(5-(azetidin-3-yloxy)benzo[d]oxazol-2-yl)-8-(methylamino)-2,7-naphthyridin-3-yl)cyclopropanecarboxamide]	–	–	≤ 0.5	≤ 0.1

Second part, the compound after the results:

IC50 [1, 2] [µM]	Kd (TYK2 JH2; [3]) [µM]	IC50 [1, 4] [µM]	Kd (TYK2 JH2; [5]) [µM]	SMILES
≤ 0.5	≤ 0.1	–	–	CNc1ncc(-c2nc(-c3ccccc3)co2)c2cc(NC(=O)C3CC3)ncc12 [Example 157, N-(8-(methylamino)-5-(4-phenyloxazol-2-yl)-2,7-naphthyridin-3-yl)cyclopropanecarboxamide]
> 0.5	≤ 0.1	–	–	O=C(Nc1cc2c(-c3ccccc3)cnc(NCCO)c2cn1)C1CC1 [Example 160, N-(8-((2-hydroxyethyl)amino)-5-phenyl-2,7-naphthyridin-3-yl)cyclopropanecarboxamide]
> 0.5	≤ 0.1	–	–	CNc1ncc(-c2ccc(-n3cccn3)cc2)c2cc(NC(=O)C3CC3)ncc12 [Example 166, N-(5-(4-(1H-pyrazol-1-yl)phenyl)-8-(methylamino)-2,7-naphthyridin-3-yl)cyclopropanecarboxamide]
> 0.5	≤ 0.1	–	–	CNc1ncc(-c2cccc(COC)c2)c2cc(NC(=O)C3CC3)ncc12 [Example 168, N-(5-(3-(methoxymethyl)phenyl)-8-(methylamino)-2,7-naphthyridin-3-yl)cyclopropanecarboxamide]
> 0.5	≤ 0.1	–	–	CNc1ncc(-c2ccc(COC)cc2)c2cc(NC(=O)C3CC3)ncc12 [Example 169, N-(5-(4-(methoxymethyl)phenyl)-8-(methylamino)-2,7-naphthyridin-3-yl)cyclopropanecarboxamide]
≤ 0.5	≤ 0.1	–	–	CNc1ncc(-c2ccc(C(=O)N(C)C)cc2)c2cc(NC(=O)C3CC3)ncc12 [Example 170, 4-(6-(cyclopropanecarboxamido)-1-(methylamino)-2,7-naphthyridin-4-yl)-N,N-dimethylbenzamide]
≤ 0.5	≤ 0.1	–	–	CNc1ncc(-c2ccc(-c3ccccn3)cc2)c2cc(NC(=O)C3CC3)ncc12 [Example 171, N-(8-(methylamino)-5-(4-(pyridin-2-yl)phenyl)-2,7-naphthyridin-3-yl)cyclopropanecarboxamide]
> 0.5	≤ 0.1	–	–	CNc1ncc(-c2cccc(COCCOC)c2)c2cc(NC(=O)C3CC3)ncc12 [Example 172, N-(5-(3-((2-methoxyethoxy)methyl)phenyl)-8-(methylamino)-2,7-naphthyridin-3-yl)cyclopropanecarboxamide]
≤ 0.5	≤ 0.1	–	–	CNc1ncc(-c2ccc(-c3ccnn3C)cc2)c2cc(NC(=O)C3CC3)ncc12 [Example 173, N-(5-(4-(1-methyl-1H-pyrazol-5-yl)phenyl)-8-(methylamino)-2,7-naphthyridin-3-yl)cyclopropanecarboxamide]
≤ 0.5	≤ 0.1	–	–	CNc1ncc(-c2nc3ccc(F)cc3o2)c2cc(NC(=O)C3CC3)ncc12 [Example 179, N-(5-(6-fluorobenzo[d]oxazol-2-yl)-8-(methylamino)-2,7-naphthyridin-3-yl)cyclopropanecarboxamide]
≤ 0.5	≤ 0.1	–	–	CNc1ncc(-c2nc3c(OC)cccc3o2)c2cc(NC(=O)C3CC3)ncc12 [Example 180, N-(5-(4-methoxybenzo[d]oxazol-2-yl)-8-(methylamino)-2,7-naphthyridin-3-yl)cyclopropanecarboxamide]
≤ 0.5	≤ 0.1	–	–	CNc1ncc(-c2nc3cc(F)ccc3o2)c2cc(NC(=O)C3CC3)ncc12 [Example 181, N-(5-(5-fluorobenzo[d]oxazol-2-yl)-8-(methylamino)-2,7-naphthyridin-3-yl)cyclopropanecarboxamide]
≤ 0.5	≤ 0.1	–	–	CNc1ncc(-c2nc3c(F)cccc3o2)c2cc(NC(=O)C3CC3)ncc12 [Example 184, N-(5-(4-fluorobenzo[d]oxazol-2-yl)-8-(methylamino)-2,7-naphthyridin-3-yl)cyclopropanecarboxamide]
–	–	≤ 0.5	≤ 0.1	[2H]C([2H])([2H])Oc1ccc2oc(-c3cnc(NC)c4cnc(NC(=O)C5CC5)cc34)nc2c1 [Example 195, N-(5-(5-(methoxy-d3)benzo[d]oxazol-2-yl)-8-(methylamino)-2,7-naphthyridin-3-yl)cyclopropanecarboxamide]
